This note sets out measurements from ChEMBL document CHEMBL5385916, “Discovery of a novel series of pyridone amides as NaV1.8 inhibitors” (Bioorg Med Chem Lett, 2024).

Series [1] in a line: Selectivity ratio of binding affinity to Nav1.8 (unknown origin) expressed in HEK293T cells assessed as retention time to binding affinity to Nav1.5 (unknown origin) expressed in HEK293T cells assessed as retention time. Type of series: cell-based.
The target of series [2] is T1, Sodium channel protein type 10 subunit alpha (Homo sapiens, UniProt Q9Y5Y9). In words: Inhibition of Nav1.8 (unknown origin) at 10 uM under half inaction state by whole-cell patch clamp analysis relative to control.
Target sequence in this assay (Q9Y5Y9 whole entry, looked up): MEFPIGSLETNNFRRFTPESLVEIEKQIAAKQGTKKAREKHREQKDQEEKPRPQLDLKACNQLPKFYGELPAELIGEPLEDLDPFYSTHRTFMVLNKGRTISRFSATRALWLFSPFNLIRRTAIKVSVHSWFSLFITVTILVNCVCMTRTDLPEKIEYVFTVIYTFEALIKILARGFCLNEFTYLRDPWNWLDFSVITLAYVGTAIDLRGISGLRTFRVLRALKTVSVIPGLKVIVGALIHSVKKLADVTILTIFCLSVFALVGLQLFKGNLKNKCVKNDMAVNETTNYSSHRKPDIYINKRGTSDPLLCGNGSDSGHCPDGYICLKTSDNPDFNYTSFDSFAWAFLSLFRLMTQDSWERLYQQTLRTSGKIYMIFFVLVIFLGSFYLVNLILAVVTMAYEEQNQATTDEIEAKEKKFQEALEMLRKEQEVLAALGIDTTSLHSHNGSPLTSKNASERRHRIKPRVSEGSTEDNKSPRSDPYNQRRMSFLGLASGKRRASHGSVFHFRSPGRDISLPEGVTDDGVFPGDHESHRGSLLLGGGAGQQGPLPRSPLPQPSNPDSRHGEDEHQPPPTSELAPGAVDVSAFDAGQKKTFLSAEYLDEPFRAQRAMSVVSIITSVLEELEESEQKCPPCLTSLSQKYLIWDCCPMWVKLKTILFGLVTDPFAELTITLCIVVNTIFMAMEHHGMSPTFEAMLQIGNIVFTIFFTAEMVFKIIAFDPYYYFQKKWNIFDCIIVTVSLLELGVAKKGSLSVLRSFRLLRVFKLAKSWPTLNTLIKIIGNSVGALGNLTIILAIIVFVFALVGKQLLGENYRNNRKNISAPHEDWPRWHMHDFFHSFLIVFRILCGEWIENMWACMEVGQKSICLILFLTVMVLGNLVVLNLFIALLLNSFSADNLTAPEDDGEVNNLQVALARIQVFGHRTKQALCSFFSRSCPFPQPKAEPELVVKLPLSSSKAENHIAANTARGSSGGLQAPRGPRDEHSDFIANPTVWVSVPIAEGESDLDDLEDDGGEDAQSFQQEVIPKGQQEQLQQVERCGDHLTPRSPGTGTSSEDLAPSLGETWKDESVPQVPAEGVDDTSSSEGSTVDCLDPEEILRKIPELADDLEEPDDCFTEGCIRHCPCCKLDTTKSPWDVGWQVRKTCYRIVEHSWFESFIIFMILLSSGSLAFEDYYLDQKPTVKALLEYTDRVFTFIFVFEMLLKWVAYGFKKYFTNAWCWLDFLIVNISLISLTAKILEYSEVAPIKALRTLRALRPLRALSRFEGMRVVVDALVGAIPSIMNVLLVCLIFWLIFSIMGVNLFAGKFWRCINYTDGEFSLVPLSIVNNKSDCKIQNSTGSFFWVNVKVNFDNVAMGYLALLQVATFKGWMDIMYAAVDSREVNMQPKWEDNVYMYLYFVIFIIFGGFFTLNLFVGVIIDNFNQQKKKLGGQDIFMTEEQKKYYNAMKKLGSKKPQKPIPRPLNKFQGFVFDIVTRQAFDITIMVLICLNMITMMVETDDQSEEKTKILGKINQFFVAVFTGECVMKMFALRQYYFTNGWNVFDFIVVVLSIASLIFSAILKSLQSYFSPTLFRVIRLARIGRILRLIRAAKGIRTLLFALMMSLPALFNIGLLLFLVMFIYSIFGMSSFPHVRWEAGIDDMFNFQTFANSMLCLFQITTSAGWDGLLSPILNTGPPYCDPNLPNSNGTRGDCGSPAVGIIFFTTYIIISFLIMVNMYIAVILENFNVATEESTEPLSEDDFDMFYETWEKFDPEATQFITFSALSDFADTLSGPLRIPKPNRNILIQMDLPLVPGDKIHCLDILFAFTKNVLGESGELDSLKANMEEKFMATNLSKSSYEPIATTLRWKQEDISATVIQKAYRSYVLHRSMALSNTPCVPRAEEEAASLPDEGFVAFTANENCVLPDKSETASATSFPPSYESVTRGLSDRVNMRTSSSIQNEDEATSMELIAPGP
The target of series [3] is Sodium channel protein type 5 subunit alpha (Homo sapiens, UniProt Q14524). The series can be described thus: Binding affinity to Nav1.5 (unknown origin) expressed in HEK293T cells assessed as retention time by cell membrane chromatography analysis. Type of series: cell membranes.
Series [4] deals with Mus musculus. In words: Analgesic activity in CFA-induced inflammatory pain mouse model assessed as paw withdrawal response to von frey stimuli at 100 microg/kg, ip measured for 5 hrs. It is filed as functional, organism-based. The settings on record: dose 100.0 µg/kg.
Series [5] has as its system Mus musculus. The series can be described thus: Analgesic activity in CFA-induced inflammatory pain mouse model assessed as paw withdrawal response to von frey stimuli at 100 microg/kg, ip measured for 9 hrs. Type of series: functional, organism-based. The note with it: dose 100.0 µg/kg.
In series [6] the target is T1, Sodium channel protein type 10 subunit alpha. In words: Binding affinity to Nav1.8 (unknown origin) expressed in HEK293T cells assessed as retention time by cell membrane chromatography analysis. It is filed as cell membranes.
Target sequence in this assay (Q9Y5Y9 whole entry, looked up): as above
The test system of series [7] is Mus musculus. In words: Analgesic activity in CFA-induced inflammatory pain mouse model assessed as paw withdrawal response to von frey stimuli at 100 microg/kg, ip. It is filed as functional, organism-based. The note with it: dose 100.0 µg/kg.
Series [8] deals with T1, Sodium channel protein type 10 subunit alpha. In words: Inhibition of Nav1.8 (unknown origin) at 10 uM under resting state by whole-cell patch clamp analysis relative to control. (In general: The patch-clamp technique gives a direct electrical read-out from membranes.)
Target sequence in this assay (Q9Y5Y9 whole entry, looked up): as above
Series [9] relates to Mus musculus. In words: Analgesic activity in cold pain hypersensitivity mouse model at 100 microg/kg, ip measured for 8 days. It is filed as functional, organism-based. The note with it: dose 100.0 µg/kg, time 8.0 day.
The subject of series [10] is Mus musculus. In words: Analgesic activity in chronic constriction injury mouse model assessed as fold increase in AUC at 100 microg/kg, ip administered for 8 days relative to model group. It is filed as functional. The settings on record: dose 100 µg/kg, time 8 day.
Series [11] in a line: Toxicity in mouse assessed as adverse effects at 100 microg/kg, ip administered for 8 days and measured upto 9 hrs. Type of series: organism-based. The settings on record: in vivo, 0.1 mg/kg, 201 h, dose 100 µg/kg.
Series [12] addresses T1, Sodium channel protein type 10 subunit alpha. The series can be described thus: Inhibition of Nav1.8 in HEK293 cells under half inaction state. Type of series: cell-based.
For series [13] the target is unchanged. In words: Inhibition of Nav1.8 in HEK293 cells under resting state. Type of series: cell-based.
In series [14] the test system is Mus musculus. The series can be described thus: Analgesic activity in CFA-induced inflammatory pain mouse model assessed as paw withdrawal response to von frey stimuli at 100 microg/kg, po administered for 8 days and measured upto 7 hrs. It is filed as functional, organism-based. The settings on record: dose 100.0 µg/kg, time <= 199.0 hrs.
Series [15] concerns Mus musculus. In words: Analgesic activity in chronic constriction injury mouse model assessed as paw withdrawal response to von frey stimuli at 100 microg/kg, ip administered for 8 days and measured upto 9 hrs. Type of series: functional, organism-based. The note with it: dose 100.0 µg/kg, time <= 201.0 hrs.
Series [16] relates to Mus musculus. The series can be described thus: Analgesic activity in chronic constriction injury mouse model at 100 microg/kg, ip administered for 10 to 14 days. The note with it: dose 100.0 µg/kg, time 10-14 day. It is filed as functional, organism-based.

Calls of active or inactive are those of the source. The rule behind the calls is not given here.

Chain of Sodium channel protein type 5 subunit alpha (Q14524 whole entry): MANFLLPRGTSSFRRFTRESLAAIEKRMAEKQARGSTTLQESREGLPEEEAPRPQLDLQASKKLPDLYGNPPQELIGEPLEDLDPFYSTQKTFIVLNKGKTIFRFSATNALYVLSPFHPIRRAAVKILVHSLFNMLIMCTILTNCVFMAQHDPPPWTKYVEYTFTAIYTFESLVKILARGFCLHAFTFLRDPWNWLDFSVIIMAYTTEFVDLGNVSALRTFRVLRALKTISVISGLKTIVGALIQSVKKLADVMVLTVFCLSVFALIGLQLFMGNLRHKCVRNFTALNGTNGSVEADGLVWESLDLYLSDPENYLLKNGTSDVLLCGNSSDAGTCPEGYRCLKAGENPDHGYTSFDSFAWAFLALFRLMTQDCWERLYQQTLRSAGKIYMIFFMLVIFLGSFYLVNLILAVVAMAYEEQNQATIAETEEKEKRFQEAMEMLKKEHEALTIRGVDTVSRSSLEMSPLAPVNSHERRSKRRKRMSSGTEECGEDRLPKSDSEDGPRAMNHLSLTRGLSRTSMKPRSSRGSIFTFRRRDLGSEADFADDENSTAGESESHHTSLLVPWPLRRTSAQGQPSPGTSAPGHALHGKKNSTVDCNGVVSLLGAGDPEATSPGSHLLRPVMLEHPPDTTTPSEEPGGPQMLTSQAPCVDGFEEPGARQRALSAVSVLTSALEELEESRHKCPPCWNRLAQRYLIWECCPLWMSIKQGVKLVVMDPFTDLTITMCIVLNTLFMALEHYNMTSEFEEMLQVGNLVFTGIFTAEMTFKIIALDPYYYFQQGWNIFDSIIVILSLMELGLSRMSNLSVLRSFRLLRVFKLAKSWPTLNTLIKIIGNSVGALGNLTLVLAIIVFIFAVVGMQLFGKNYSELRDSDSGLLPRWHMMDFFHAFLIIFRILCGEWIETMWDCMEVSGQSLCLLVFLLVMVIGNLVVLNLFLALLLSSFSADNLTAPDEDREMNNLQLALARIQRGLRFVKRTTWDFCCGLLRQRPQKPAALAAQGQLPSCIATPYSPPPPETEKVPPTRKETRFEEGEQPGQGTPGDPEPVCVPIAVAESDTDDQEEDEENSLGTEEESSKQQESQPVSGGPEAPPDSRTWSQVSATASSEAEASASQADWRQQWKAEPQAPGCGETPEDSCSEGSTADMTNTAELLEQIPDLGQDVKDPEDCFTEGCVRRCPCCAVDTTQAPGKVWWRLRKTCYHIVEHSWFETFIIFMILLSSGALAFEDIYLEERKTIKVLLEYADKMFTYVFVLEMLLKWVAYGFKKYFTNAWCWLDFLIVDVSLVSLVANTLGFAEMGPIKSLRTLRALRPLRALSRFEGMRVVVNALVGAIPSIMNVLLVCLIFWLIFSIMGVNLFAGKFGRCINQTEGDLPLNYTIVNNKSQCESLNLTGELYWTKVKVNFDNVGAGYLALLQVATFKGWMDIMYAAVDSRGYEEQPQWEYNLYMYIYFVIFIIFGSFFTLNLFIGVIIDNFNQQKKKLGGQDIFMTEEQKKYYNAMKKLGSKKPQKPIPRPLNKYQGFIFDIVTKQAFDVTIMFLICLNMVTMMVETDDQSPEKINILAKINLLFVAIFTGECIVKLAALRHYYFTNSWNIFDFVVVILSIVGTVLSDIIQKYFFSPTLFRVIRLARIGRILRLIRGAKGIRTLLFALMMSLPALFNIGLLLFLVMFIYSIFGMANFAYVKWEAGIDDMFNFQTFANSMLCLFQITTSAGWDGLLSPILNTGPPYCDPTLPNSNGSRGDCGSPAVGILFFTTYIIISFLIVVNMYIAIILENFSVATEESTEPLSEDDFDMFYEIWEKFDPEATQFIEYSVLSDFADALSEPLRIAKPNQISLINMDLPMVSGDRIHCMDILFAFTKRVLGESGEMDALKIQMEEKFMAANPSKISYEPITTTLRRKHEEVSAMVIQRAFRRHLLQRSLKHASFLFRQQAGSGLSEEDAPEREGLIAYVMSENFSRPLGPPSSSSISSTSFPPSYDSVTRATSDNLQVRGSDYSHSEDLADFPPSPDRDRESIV

As to `COc1cc(NC(=O)c2ncc(C(F)(F)F)cc2Oc2ccc(F)cc2C)ccn1`, the Selectivity ratio in series [1] is 1.79. Besides, the results for the inhibition in [2] and in series [8] were 84.5% and 82.5%, respectively. The Retention_time in series [3] is reported as 12.3 min. Moreover, the outcome in [4], in series [5] and in series [7] was Active. Further, in series [6], the Retention time came out at 22 min.

For `O=C(Nc1cc[nH]c(=O)c1)c1ccc(C(F)(F)F)cc1OC1CCC(F)(F)CC1`, in series [1], the Selectivity ratio came to 0.66. Moreover, the Retention_time in series [3] came to 5.8 min. Further, the Retention time in series [6] was found to be 3.8 min.

For the compound `Cc1cc(F)ccc1Oc1cc(C(F)(F)F)ccc1C(=O)Nc1ccncc1`, in series [1], the Selectivity ratio stood at 10. In addition, the Retention_time in series [3] was determined as 3 min. Also, in [6], the Retention time came out at 30 min. Further, in [7], the result was Active.

As to `O=C(Nc1cc[nH]c(=O)c1)c1ccc(C(F)(F)F)cc1Oc1ccc(F)nc1`, the Selectivity ratio in series [1] was determined as 0.92. Besides, in series [3], the Retention_time was determined as 2.6 min. In series [6], the Retention time amounted to 2.4 min.

As for `O=C(Nc1cc[nH]c(=O)c1)c1ccc(C(F)(F)F)cc1N1CCC(C(F)(F)F)CC1`, the Selectivity ratio in series [1] was 0.9. For the same compound, the inhibition in series [2] is 92.2%; in series [12] (dose 0.1-10 µM), “Dose-Dependent Effect”; in series [13] (dose 0.1-10 µM), “Dose-Dependent Effect”; in series [8] it was 93.4%. Moreover, the Retention_time in [3] was determined as 11.7 min. The outcome in series [9], in [4], in series [5], in series [14], in series [7] and in series [15] was Active. In [16], the result was Active. The “fold change (FC)” value in [10] stood at 2. For the same compound, the Activity result in series [11] is “Non-Toxic”. Further, the IC50 in series [12] stood at 0.472 µM; in [13], 0.513 µM. For the same compound, the Retention time in series [6] is 10.5 min.

As to `Cc1cc(F)ccc1Oc1cc(C(F)(F)F)ccc1C(=O)NCc1cc[nH]c(=O)c1`, in [1], the Selectivity ratio turned out to be 0.66. Further, the Retention_time in series [3] stood at 9.1 min. Moreover, the Retention time in [6] worked out at 6 min.

On to `Cc1cc(F)ccc1Oc1cc([N+](=O)[O-])ccc1C(=O)Nc1cc[nH]c(=O)c1`, for which the Selectivity ratio in [1] is 0.52. Moreover, the Retention_time in [3] worked out at 4.5 min. In [6], the Retention time amounted to 4.5 min.

As for `O=C(Nc1cc[nH]c(=O)c1)c1ccc(C(F)(F)F)cc1OC1CC=CC1`, the Selectivity ratio in series [1] stood at 0.61. Besides, the Retention_time in series [3] is on record as 16.4 min. In addition, in series [6], the Retention time was 10.1 min.

For the compound `COc1cccc(NC(=O)c2ccc(C(F)(F)F)cc2Oc2ccc(F)cc2C)c1`, in [1], the Selectivity ratio turned out to be 0.63. In addition, in [3], the Retention_time is recorded as 7.3 min. The Retention time in series [6] amounted to 4.6 min.

Turning to `Cc1cc(F)ccc1Oc1cc(C(F)(F)F)ccc1C(=O)Nc1ccccc1`, the Selectivity ratio in [1] was 0.79. Further, the Retention_time in series [3] turned out to be 7.3 min. In addition, the Retention time in series [6] was 5.8 min.

`O=C(Nc1cc[nH]c(=O)c1)c1ccc(C(F)(F)F)cc1Sc1ccc(F)cc1`: in [1], the Selectivity ratio is 0.57. In addition, the inhibition in series [2] was 88.8%; in [8], 87.5%. For the same compound, in series [3], the Retention_time was found to be 16.1 min. Moreover, the result in [4], in [5] and in [7] was Active. The Retention time in [6] is 9.2 min.

`Cc1cc(F)ccc1Oc1cc(C(F)(F)F)ccc1C(=O)Nc1ccc2cc[nH]c2c1`: the Selectivity ratio in [1] stood at 1. For the same compound, the inhibition in series [2] is 1.55%; in [8], -0.26%. The Retention_time in series [3] is greater than 60 min. Further, the Retention time in [6] was greater than 60 min. Besides, the result in [7] was Active.

Consider `Cc1cc(F)ccc1Oc1cc(C(F)(F)F)ccc1C(=O)NCc1ccccc1`, for which the Selectivity ratio in series [1] turned out to be 0.94. Moreover, the Retention_time in series [3] is greater than 60 min. For the same compound, the Retention time in series [6] turned out to be 56.1 min.

Regarding `Cc1cc(F)ccc1Oc1cc(C(F)(F)F)ccc1C(=O)Nc1cc[nH]c(=O)c1`, the Selectivity ratio in [1] is 0.57. Also, the Retention_time in series [3] is 20.6 min. Besides, the Retention time in series [6] worked out at 11.8 min.

With `Cc1cc(F)ccc1Oc1cc(C(F)(F)F)ccc1C(=O)Nc1cccc(O)c1`, the Selectivity ratio in series [1] was found to be 5.14. Besides, in series [3], the Retention_time is reported as 7.1 min. Moreover, in series [6], the Retention time is 36.5 min.

Turning to `CN1CCN(c2cc(C(F)(F)F)ccc2C(=O)Nc2cc[nH]c(=O)c2)CC1`, the Selectivity ratio in series [1] was 41.4. The Retention_time in series [3] is listed as 1.3 min. Further, the Retention time in series [6] was 53.8 min. The result in series [7] was Active.

Turning to `O=C(Nc1cc[nH]c(=O)c1)c1ccc(C(F)(F)F)cc1Oc1ccncc1`, the Selectivity ratio in series [1] came out at 0.94. Also, in [3], the Retention_time was 1.7 min. Also, the Retention time in series [6] was found to be 1.6 min.

Take `COc1cc(NC(=O)c2ccc([N+](=O)[O-])cc2Oc2ccc(F)cc2C)ccn1`: the Selectivity ratio in [1] was determined as 0.62. The Retention_time in series [3] came to 4.6 min. The Retention time in series [6] came out at 4.6 min.

Turning to `O=C(Nc1cc[nH]c(=O)c1)c1ccc(C(F)(F)F)cc1Oc1ccccc1`, in series [1], the Selectivity ratio turned out to be 0.55. Moreover, the Retention_time in series [3] is on record as 8.6 min. For the same compound, in series [6], the Retention time is 4.7 min.

Turning to `COc1cc(NC(=O)c2ccc(C(F)(F)F)cc2Oc2ccc(F)cc2C)ccn1`, in series [1], the Selectivity ratio was determined as 0.34. Further, the Retention_time in series [3] is listed as 17.8 min. Further, the Retention time in series [6] turned out to be 6.1 min.

Broadly, the inhibition is the drop in the measured response relative to a control, in per cent. The term IC50 denotes the concentration that inhibits the measured activity by half. Read a low IC50 as higher potency.
